In PMC8151276, “An Integrated Approach toward NanoBRET Tracers for Analysis of GPCR Ligand Engagement” (Molecules, 2021):

Assays:
GCGR = target: T1, GCGR (Homo sapiens, UniProt P47871); test: NanoBRET screen HiBiT-GCGR in HEK293; format: binding; conditions: GCGR
T1 construct: purchased Promega (in-house HiBiT-GPCR construct library, NanoBRET)
Experimental: (§1) Each tracer candidate was screened across the entire library of HiBiT-GPCR constructs using NanoBRET as the detection modality. As depicted in Figure 4A, the specificity of interactions was evaluated through decrease in BRET due to competitive displacement of a bound tracer by excess parental compound. Each tracer was analyzed for binding to each HiBiT-GPCR fusion in the absence and in the presence of competing parental compound. Briefly, HEK293 cells were transfected with HiBiT-GPCR constructs diluted into promoterless DNA to reduce expression and maximize translocation to the cell surface. Each tracer candidate was then screened at concentrations of 1 μM and 0.1 μM across cells expressing these fusions. Cells were treated for 1.5 h with tracer either alone or in the presence of 20 μM competing parental compound (i.e., control). BRET was measured upon addition of purified LgBiT and subsequent complementation with HiBiT genetically fused to a GPCR. The specificity of interactions was assessed through a decrease in BRET signal due to competitive displacement of the bound tracer. To further gauge the robustness of these interactions, the fold response over the control (i.e., BRETtracer/BRETcontrol) was calculated. We chose a 1.5-fold response, which translates to ≥7-fold signal over noise as the minimal threshold required to score an interaction as positive. […]. Below we highlight the screening results obtained for our exemplary fluorescent tracers based on Clozapine, Amitriptyline and AZD1283.
(§2) HiBiT-GPCR DNA constructs were diluted in 10 mM Tris pH 8 to a final concentration of 0.01 μg/μL, arrayed in 96-well plates and stored at −20 °C. For transfection, HEK293 cells were suspended in Opti-MEM (without phenol red) supplemented with 2% fetal bovine serum (Seradigm) and 100 units/mL penicillin–streptomycin (Gibco) at a final concentration of 220,000 cells/mL and dispensed into white 96-well plates at 90 μL/well. Subsequent transfections and screens were carried using an Agilent Bravo Automated Liquid Handling Platform. First, the 96-well HiBiT DNA arrays were diluted 25-fold in Opti-MEM (without serum or phenol red) to a final concentration of 0.0004 μg/μL and 20 μL of the diluted DNAs were transferred into new 96-well plates. Next, promoterless carrier DNA (1 μg/μL) was diluted 25-fold (0.04 μg/μL) and then dispensed into the diluted arrays at 20 μL/well. Following brief mixing, Viafect transfection reagent (Promega) diluted 16-fold into Opti-MEM was dispensed into the plates at 40 μL/well. After mixing by pipetting, plates were incubated for 10 min on the pipetting station deck. The DNA-transfection reagent complexes were then added to plates containing cells. To facilitate the screen, 10 μL of DNA-transfection reagent complexes were added in duplicates to the top 4 and bottom 4 rows, resulting in two identical 48-well arrays per plate. Plates with transfected cells were incubated for 18–20 h at 37 °C/5% CO2. A screen of each tracer across the entire library using two different concentrations requires duplicate plates of transfected cells. Depending on the number of tracers being screened, transfections can be scaled up using the same ratios. The next day, for each tracer, four 20× screening solutions in tracer dilution buffer (Promega) were prepared: two duplicates at final concentration of 20 μM and two duplicates at a final concentration of 2 μM. A competing unmodified compound was added to one of each duplicate at a final concentration of 400 μM. The four resulting solutions were diluted 4-fold in Opti-MEM without serum or phenol red to generate 5× solutions (5 µM and 0.5 µM tracer +/− 100 μM competing compound). To screen the library, a BioTek MultiFlo FX liquid dispenser was used to dispense 22.5 µL of tracer solution to the top 4 rows and 22.5 µL tracer + competing compound solution to the 4 bottom rows. Plates were briefly mixed on an orbital shaker and incubated for 1.5 h at room temperature. […]

GALR1 = target: T2, GALR1 (Homo sapiens, UniProt P47211); test: NanoBRET screen HiBiT-GALR1 in HEK293; format: binding; conditions: GALR1
T2 construct: purchased Promega (in-house HiBiT-GPCR construct library, NanoBRET)
T2 sequence (P47211 1-349): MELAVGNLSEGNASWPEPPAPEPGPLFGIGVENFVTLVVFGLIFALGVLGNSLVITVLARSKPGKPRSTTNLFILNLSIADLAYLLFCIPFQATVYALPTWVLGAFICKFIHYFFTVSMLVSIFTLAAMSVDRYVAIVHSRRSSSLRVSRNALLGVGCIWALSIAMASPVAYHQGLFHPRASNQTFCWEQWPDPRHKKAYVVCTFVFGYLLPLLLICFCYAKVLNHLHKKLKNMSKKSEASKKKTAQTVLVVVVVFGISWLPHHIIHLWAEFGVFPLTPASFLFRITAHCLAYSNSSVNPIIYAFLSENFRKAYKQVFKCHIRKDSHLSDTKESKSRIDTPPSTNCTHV
Experimental: as §1, §2

T1 sequence (P47871 26-477): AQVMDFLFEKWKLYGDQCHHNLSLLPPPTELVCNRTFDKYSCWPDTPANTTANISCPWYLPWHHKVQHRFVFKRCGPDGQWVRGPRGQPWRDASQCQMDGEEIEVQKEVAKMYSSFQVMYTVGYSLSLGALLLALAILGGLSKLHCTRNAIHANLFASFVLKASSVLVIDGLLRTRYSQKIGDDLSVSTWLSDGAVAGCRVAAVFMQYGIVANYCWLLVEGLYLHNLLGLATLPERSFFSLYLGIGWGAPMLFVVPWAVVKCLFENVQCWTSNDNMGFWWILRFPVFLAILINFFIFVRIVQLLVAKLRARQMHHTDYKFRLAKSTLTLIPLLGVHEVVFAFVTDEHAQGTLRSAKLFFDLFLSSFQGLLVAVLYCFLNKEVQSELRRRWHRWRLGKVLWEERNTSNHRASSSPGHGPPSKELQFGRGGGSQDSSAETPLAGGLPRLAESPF

NanoBRET Fold Response (GCGR; 0.1μM tracer): 0.94
NanoBRET Fold Response (GCGR; 1μM tracer): 1.14
NanoBRET Fold Response (GALR1; 0.1μM tracer): 1.05
NanoBRET Fold Response (GALR1; 1μM tracer): 1.09
Structure (SMILES): O=C(CCOCCOCCOCCOCCNC(=O)CCc1ccc2n1[B-](F)(F)[N+]1=C(c3ccc[nH]3)C=CC1=C2)NCCCN1CCN(C2=Nc3cc(Cl)ccc3Nc3ccccc32)CC1 [Clozapine-a-2-NB590]
